Results reported in patent EP3928779A1 (Chugai Seiyaku Kabushiki Kaisha, priority 2014, dated 2016).

system: rat small-intestinal brush border membrane vesicles; experiment: Inhibitory effect on 33PO4 uptake into rat small-intestinal brush border membrane vesicles (rapid filtration method); assay type: biochemical; conditions: 33PO4 uptake into rat small-intestinal BBMVs; test compound 1 µM; reacted for 60 seconds
Procedure, shortened: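 Uptake of ^33PO4 was measured by rapid filtration and liquid scintillation counting of filter-retained vesicles, after quenching with ice-cold 110 mM NaCl/1 mM KH2PO4/10 mM HEPES pH 7.5. Vesicles were brush border membranes from the upper small intestine of female Wistar rats aged 4–5 weeks.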

Molecule	Rate of uptake inhibition (%) (1 µM)
CSc1ccc(-c2cc(C(F)(F)F)ccc2NC(=O)C2=C(O)[C@@]3(C)CCCN3N(Cc3ccc(C#CCCCCC(=O)O)c(F)c3F)C2=O)cn1 [Example 117, 7-[4-[[(4aR)-4-Hydroxy-4a-methyl-3-[[2-(6-methylsulfanylpyridin-3-yl)-4-(trifluoromethyl)phenyl]carbamoyl]-2-oxo-6.7-dihydro-5H-pyrrolo[1.2-b]pyridazin-1-yl]methyl]-2,3-difluorophenyl]hept-6-ynoate]	78
CN1N(Cc2ccc(OCCN3CCN(S(C)(=O)=O)CC3)c(F)c2F)C(=O)C(C(=O)Nc2ccc(C(F)(F)F)cc2-c2cc(C(F)(F)F)ncn2)=C(O)C12CCCC2 [Example 379]	37
Cc1c(C#N)ncnc1-c1cc(Cl)ccc1NC(=O)C1=C(O)[C@H](C(C)(C)C)N(C)N(Cc2ccc(OCCN3CCOCC3)c(F)c2F)C1=O [Example 274]	43
Cc1c(C#N)ncnc1-c1cc(C(F)(F)F)ccc1NC(=O)C1=C(O)C(C)(C)N(C)N(Cc2cccc(F)c2F)C1=O [Example 311]	65
CN1N(Cc2ccc(OCCN3CCOCC3)c(F)c2F)C(=O)C(C(=O)Nc2ccc(Br)c(C(F)(F)F)n2)=C(O)C12CCCCC2 [Example 298]	10
CN1N(Cc2cccc(F)c2F)C(=O)C(C(=O)Nc2ccc(Cl)cc2-c2ccc(C(F)(F)F)nc2)=C(O)C12CCC2 [Example 256]	79
COCCN(C)CCOc1c(-c2cccnc2)cc(CN2C(=O)C(C(=O)Nc3ccc(C(F)(F)F)cc3-c3cc(C(F)(F)F)ncn3)=C(O)C3(CCCC3)N2C)c(F)c1F [Example 440, 9-[[2,3-Difluoro-4-[2-[2-methoxyethyl(methyl)amino]ethoxy]-5-(3-pyridinyl)phenyl]methyl]-6-hydroxy-10-methyl-8-oxo-N-[4-(trifluoromethyl)-2-[6-(trifluoromethyl)pyrimidin-4-yl]phenyl]-9,10-diazaspiro[4.5]dec-6-ene-7-carboxamide]	28
COCCN(C)CCOCCOCCOCCOc1ccc(CN2C(=O)C(C(=O)Nc3ccc(C(F)(F)F)cc3-c3cc(C(F)(F)F)ncn3)=C(O)C3(CCCC3)N2C)c(F)c1F [Example 431]	26
C[C@]12CCCN1N(Cc1cc(F)c(F)cc1F)C(=O)C(C(=O)Nc1cc(F)c(Br)c(F)c1)=C2O [Example 194]	80
(4aR)-1-[(2,3-Difluorophenyl)methyl]-4-hydroxy-4a-methyl-N-[5-methyl-2-(trifluoromethyl)furan-3-yl]-2-oxo-6,7-dihydro-5H-pyrrolo[1,2-b]pyridazine-3-carboxamide [Example 7]	69
C[C@]12CCCN1N(Cc1ccc(SCCN3CCOCC3)c(F)c1F)C(=O)C(C(=O)Nc1ccc(C(F)(F)F)cc1-c1ccc(C(F)(F)F)nc1)=C2O.Cl [Example 163, (4aR)-1-[[2,3-Difluoro-4-(2-morpholin-4-ylethylsulfanyl)phenyl]methyl]-4-hydroxy-4a-methyl-2-oxo-N-[4-(trifluoromethyl)-2-[6-(trifluoromethyl)pyridin-3-yl]phenyl]-6,7-dihydro-5H-pyrrolo[1,2-b]pyridazine-3-carboxamide hydrochloride]	79
CC(C)[C@H]1C(O)=C(C(=O)Nc2cc(F)c(Br)c(F)c2)C(=O)N(Cc2cccc(F)c2F)N1C [Example 254]	58
C[C@]12CCCN1N(Cc1cccc(F)c1F)C(=O)C(C(=O)Nc1ccc(Br)c(F)c1)=C2O [Example 28]	72
CN1N(Cc2cccc(F)c2F)C(=O)C(C(=O)Nc2ccc(Cl)cc2-c2cc(C(F)(F)F)ncn2)=C(O)C12CCCC2 [Example 261]	77
C[C@]12CCCN1N(Cc1ccc(F)cc1F)C(=O)C(C(=O)Nc1ccc(C(F)(F)F)cc1-c1ccc(C(F)(F)F)nc1)=C2O [Example 173]	73
